For 3 compounds, IC50, AC50 and EC50 results are on record in ChEMBL document CHEMBL1201862, “PubChem BioAssay data set” (2004).

For test [1], the target named is T1, Sentrin-specific protease 8 (Homo sapiens, UniProt Q96LD8).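 Also: luminescence read-out of SENP8 inhibition, dose-response confirmation following an ultra-high-throughput screen.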
T1 sequence (Q96LD8 whole entry): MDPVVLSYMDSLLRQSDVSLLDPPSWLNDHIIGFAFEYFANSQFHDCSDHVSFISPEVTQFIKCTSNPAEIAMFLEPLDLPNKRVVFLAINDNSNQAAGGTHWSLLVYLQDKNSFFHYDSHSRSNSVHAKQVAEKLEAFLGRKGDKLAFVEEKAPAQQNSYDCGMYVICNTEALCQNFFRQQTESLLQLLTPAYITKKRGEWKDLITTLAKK
Format: functional.

For test [2], the target named is T2, Caspase-6 (Homo sapiens, UniProt P55212).
T2 sequence (P55212 whole entry): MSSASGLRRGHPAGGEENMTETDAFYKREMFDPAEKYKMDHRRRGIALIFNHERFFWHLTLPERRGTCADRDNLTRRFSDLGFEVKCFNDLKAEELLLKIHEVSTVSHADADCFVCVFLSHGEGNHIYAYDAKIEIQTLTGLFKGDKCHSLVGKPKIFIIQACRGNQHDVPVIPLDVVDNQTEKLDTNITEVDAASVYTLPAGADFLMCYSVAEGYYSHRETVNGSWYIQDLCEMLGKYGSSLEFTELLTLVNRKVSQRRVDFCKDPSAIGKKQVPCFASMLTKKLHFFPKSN
The test can be described thus: human caspase-6 inhibitors, dose response, biochemical, VEID-R110 fluorescence, cherry-pick (AID 720632).

For test [3], the target named is T3, Caspase-3 (Homo sapiens, UniProt P42574).
T3 sequence (P42574 whole entry): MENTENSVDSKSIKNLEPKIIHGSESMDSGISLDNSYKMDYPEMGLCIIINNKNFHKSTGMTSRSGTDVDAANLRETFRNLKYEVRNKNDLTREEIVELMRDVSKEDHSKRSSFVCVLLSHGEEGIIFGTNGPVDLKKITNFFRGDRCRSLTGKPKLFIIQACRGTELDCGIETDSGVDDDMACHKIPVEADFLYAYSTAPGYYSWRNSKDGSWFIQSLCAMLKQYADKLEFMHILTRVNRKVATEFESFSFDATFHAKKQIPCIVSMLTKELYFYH
The experiment in a line: SAR Analysis of small molecule inhibitors of Sentrin-specific proteases (SENPs) using a Caspase-3 Selectivity assay. [Related pubchem assays (depositor defined):AID2540, AID2599, AID434973, AID489001]. It counts as functional.

Test [4] concerns the target Intestinal-type alkaline phosphatase (Homo sapiens, UniProt P09923). The test can be described thus: activation of human intestinal alkaline phosphatase – biochemical, dose response (AID 488873). Format: functional.
For test [5], the target named is T4, Alkaline phosphatase, tissue-nonspecific isozyme (Homo sapiens, UniProt P05186).
T4 sequence (P05186 whole entry): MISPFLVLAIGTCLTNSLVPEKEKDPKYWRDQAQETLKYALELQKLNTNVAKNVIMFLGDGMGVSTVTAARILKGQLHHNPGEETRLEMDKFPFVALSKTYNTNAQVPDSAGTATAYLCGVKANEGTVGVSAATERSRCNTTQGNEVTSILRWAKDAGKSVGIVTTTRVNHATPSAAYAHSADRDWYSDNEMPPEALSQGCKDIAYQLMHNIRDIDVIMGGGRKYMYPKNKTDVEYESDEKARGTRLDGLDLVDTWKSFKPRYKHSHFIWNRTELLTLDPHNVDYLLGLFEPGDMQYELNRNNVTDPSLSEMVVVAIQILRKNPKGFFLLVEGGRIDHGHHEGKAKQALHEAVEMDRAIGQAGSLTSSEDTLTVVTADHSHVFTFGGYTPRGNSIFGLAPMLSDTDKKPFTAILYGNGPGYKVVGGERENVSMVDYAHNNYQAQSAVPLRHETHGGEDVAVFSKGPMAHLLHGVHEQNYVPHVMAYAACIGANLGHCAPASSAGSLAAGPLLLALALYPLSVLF
The test can be described thus: TNAP enzyme inhibition by screening hits, dose response, selectivity assay for mouse IAP inhibitor project, biochemical, human TNAP, uHTS hits (AID 488906). It counts as functional.

Test [6] has as its target T5, Sentrin-specific protease 7 (Homo sapiens, UniProt Q9BQF6).
T5 sequence (Q9BQF6 whole entry): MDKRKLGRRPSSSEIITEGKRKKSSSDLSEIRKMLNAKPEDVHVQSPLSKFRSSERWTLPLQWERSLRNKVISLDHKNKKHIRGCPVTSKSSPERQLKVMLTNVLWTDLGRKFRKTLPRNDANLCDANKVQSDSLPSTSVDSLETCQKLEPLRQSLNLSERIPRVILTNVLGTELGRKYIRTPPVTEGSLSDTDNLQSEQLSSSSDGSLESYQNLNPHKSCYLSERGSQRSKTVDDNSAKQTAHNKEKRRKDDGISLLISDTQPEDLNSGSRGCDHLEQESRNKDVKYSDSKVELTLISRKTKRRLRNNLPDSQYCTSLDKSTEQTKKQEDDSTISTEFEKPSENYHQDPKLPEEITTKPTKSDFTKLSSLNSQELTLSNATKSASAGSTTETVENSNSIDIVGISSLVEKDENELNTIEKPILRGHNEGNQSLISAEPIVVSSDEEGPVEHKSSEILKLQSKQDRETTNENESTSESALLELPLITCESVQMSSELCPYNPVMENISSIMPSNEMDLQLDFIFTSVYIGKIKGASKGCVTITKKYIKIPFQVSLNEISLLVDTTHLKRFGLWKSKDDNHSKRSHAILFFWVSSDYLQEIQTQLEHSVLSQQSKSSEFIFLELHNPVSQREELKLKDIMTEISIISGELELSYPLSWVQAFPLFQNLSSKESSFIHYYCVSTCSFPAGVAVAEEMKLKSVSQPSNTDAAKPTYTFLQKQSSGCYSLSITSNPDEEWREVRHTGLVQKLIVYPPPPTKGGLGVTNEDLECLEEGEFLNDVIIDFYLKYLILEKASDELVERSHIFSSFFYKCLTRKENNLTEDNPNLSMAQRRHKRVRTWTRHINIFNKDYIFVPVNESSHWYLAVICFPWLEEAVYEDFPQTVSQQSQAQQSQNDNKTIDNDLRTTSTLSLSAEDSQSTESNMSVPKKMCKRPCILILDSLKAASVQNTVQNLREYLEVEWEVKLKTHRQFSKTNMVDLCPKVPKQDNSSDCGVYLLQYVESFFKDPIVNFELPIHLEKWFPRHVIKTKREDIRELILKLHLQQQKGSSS
The test can be described thus: SENP7 protease inhibitors, SAR follow-up, biochemical, luminescence (AID 504497). Format: functional.

A short description of test [7]: inhibitors of firefly luciferase expression or activity, dose response, H4 neuroglioma cells, luminescence (AID 1990). Format: functional, cell-based.
Test [8] in a line: cytotoxicity toward HT-29 cells – cell-based, CellTiter-Glo luminescence, IC50, dose response (AID 1117330). Format: functional. (In general: ATP-based viability assays read luminescence as a measure of living cells.)
The test system of test [9] is BJ. The experiment in a line: cells. Format: functional, cell-based. The conditions noted are these: Homo sapiens.
Test [10] is described as follows: RKO cell viability reduction, dose response, CellTiter-Glo luminescence (AID 1117322). It counts as functional.
Test [11] deals with BJ. The experiment in a line: cytotoxicity toward BJ-TERT fibroblasts, dose response, cell-based, RAS-independent, luminescence (AID 1933). The conditions noted are these: Homo sapiens. It counts as functional.
Test [12] has as its system BJ. The experiment in a line: cytotoxicity toward BJ-TERT-LT-ST fibroblasts, dose response, cell-based, RAS-independent, luminescence (AID 1935).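 Also: BJ fibroblasts immortalized with TERT plus LT and ST oncogenes.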 Format: functional. The conditions noted are these: Homo sapiens.

Several values for one entry are separate records, joined by “and”; a condition that tells them apart may be missing. Equal values may be shown once. Activity calls are given as the source filed them. A value given as a limit tells only on which side of the number the result lay.

Intestinal-type alkaline phosphatase, sequence (P09923 whole entry): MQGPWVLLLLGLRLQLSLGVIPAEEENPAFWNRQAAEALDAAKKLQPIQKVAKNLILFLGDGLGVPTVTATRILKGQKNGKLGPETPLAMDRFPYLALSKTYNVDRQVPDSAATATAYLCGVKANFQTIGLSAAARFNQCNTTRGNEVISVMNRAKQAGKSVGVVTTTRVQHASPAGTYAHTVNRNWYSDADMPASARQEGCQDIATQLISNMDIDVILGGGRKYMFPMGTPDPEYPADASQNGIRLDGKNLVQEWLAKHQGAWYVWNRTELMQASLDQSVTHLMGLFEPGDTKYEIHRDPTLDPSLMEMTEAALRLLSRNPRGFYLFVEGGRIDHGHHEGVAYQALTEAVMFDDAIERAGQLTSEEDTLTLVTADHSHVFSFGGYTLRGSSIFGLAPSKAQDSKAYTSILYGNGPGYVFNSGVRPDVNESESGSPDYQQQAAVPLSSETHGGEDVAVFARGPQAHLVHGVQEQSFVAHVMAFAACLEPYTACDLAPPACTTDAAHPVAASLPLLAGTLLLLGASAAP

By IC50 is commonly meant the concentration needed to halve the response being measured. In general, AC50 refers to the concentration giving half of the maximal activity seen. In the case of `CCCOc1cc2c(C#N)c(N3CCCC3)nc(N)c2c(N)n1`, the IC50 in [1] was 4.32 µM (active). Also, the half-maximal activity concentration (AC50) in test [2] is 16.9 µM (active).

As usually defined, the EC50 is the concentration giving half of the maximal effect. As to `Oc1ccc(/C=N/Nc2cc(N3CCCC3)nc(N3CCCC3)n2)cc1O`, the IC50 in test [3] is > 99 µM (inactive); in [5], > 100 µM (inactive); in test [6], 58.1 µM (active) and 39.7 µM (active). Also, the EC50 in [4] was > 100 µM (inactive).

Regarding `Cc1cc2nc3ccc(N(C)C)cc3[s+]c2cc1N` [TOLONIUM CHLORIDE], the 50% effective concentration (EC50) in [7] is 8.36 µM (active); in test [9], 7.39 µM (active); in test [11], 5.74 µM (active); in test [12], 9.19 µM (inconclusive). The IC50 in [8] was 5.06 µM (inactive); in test [10], 996 nM (active).
